Experiments:
Type in all cases: in vivo, human
subjects with HD [1] = assay: Phase 3 study: Anosognosia Scale; details: baseline to Week 12; either treatment group
Text: (§1) Exploratory endpoints included: • Wearable movement sensors (in select sites; optional participation) using MC10 Inc., BIOSTAMP® NPOINT® system • Huntington Disease Health Index • Changes from the screening period baseline to each postbaseline study visit (Weeks 2 through 12) in the TMC based on site assessments • Changes from the screening period baseline to maintenance (the average of the Week 10 and Week 12 assessments) in the TMC based on video recording central rater assessments • CGI-C response at Weeks 2 through 10 • PGI-C response at Weeks 2 through 10 • The change from baseline to Weeks 4, 8, and 10 in the Neuro-QoL Upper Extremity Function T-score. • The change from baseline to Weeks 4, 8, and 10 in the Neuro-QoL Lower Extremity Function T-score • CGI-S at Weeks 2 through 12 • PGI-S at Weeks 2 through 12 • SF-36 at Week 12 • HD-HI at Week 10 and Week 12 • EQ-5D-5L at Week 10 and Week 12 • UHDRS scores for motor, behavior, and functional capacity assessment at Weeks 2 through 12 • Other UHDRS scores including functional assessment and independence scale at Week 12 • AS at Week 12 • Change from screening period in physical activity by movement sensors at the Week 10 visit period

subjects with HD [2] = assay: Phase 3 study: Neuro-QoL Upper Extremity Function T-score
Text: As used herein, “Neuro-QoL” is a set of self-report measures that assesses the health-related quality of life (HRQOL) of adults and children with neurological disorders. Neuro-QoL Upper Extremity Function scale measures one's ability across fine motor and activities of daily living involving digital, manual and reach-related function and self-care. Neuro-QoL Lower Extremity Function scale measures one's ability to carry out various activities involving the trunk region and increasing degrees of bodily movement, ambulation, balance or endurance. See, National Institute of Neurological Disorders and Stroke (NINDS). User Manual for the Quality of Life in Neurological Disorders (Neuro-QoL) Measures, Version 2.0, March 2015, which is incorporated herein by reference in its entirety.
A Phase 3, randomized, double-blind, placebo-controlled study to evaluate the efficacy, safety, and tolerability of once-daily valbenazine in subjects with HD was conducted. The study included a 4-week screening period, an 8-week dose-adjustment period, a 4-week maintenance period, and a final study visit 2 weeks following the final dose of study drug. […]

subjects with HD [3] = assay: Phase 3 study: safety and tolerability (adverse events)
Experimental: A Phase 3, randomized, double-blind, placebo-controlled study to evaluate the efficacy, safety, and tolerability of once-daily valbenazine in subjects with HD was conducted. The study included a 4-week screening period, an 8-week dose-adjustment period, a 4-week maintenance period, and a final study visit 2 weeks following the final dose of study drug.
During the dose-adjustment and maintenance periods, the investigator could assess that a dose level is not tolerated if a subject experienced an adverse event (AE) that is (1) deemed associated with the study drug, and (2) of either moderate or severe intensity, or a serious AE.

subjects with HD [4] = assay: Phase 3 study: UHDRS total motor score (TMS); details: MMRM model; valbenazine vs placebo
Text: As used herein, “Unified Huntington Disease Rating Scale” or “UHDRS” is the standard clinical assessment tool in Huntington disease. The UHDRS is divided into four domains: motor performance, cognitive function, behavioral abnormalities, and functional abilities. The motor section consists of 31 items assessing oculomotor, bradykinesia/rigidity, dystonia, chorea, and gait/balance. The items are rated from zero to four, with zero indicating normal findings and four indicating severe abnormalities. The range of the Total Motor Score (TMS) is 0 to 124, with higher scores indicating more severe motor impairment. The cognitive component includes the verbal fluency test, the symbol digit modalities test, and the Stroop test (color naming, word reading, and interference). Lower scores indicate worse cognitive performance. The behavioral assessment measures the frequency and severity of 11 items, which are rated from zero (almost never/absent) to four (almost always/severe). The items assess depression, anxiety, aggression, psychosis, and other behavioral abnormalities. The behavioral score ranges from 0 to 88, with higher scores indicating more severe psychiatric abnormalities. The functional domain comprises three components, namely the total functional capacity (TFC), the functional assessment scale (FAS), and the independence scale (IS). […]

subjects with HD [5] = assay: Phase 3 study: Short Form 36 Health Survey (SF-36); details: Week 12
Text: as §1
The SF-36 is 36-item questionnaire that measures health on 8 dimensions. […]

subjects with HD [6] = assay: Phase 3 study: Patient Global Impression of Severity (PGI-S)
Text: as §1
Subjects rated the severity of their chorea at scheduled visits on a 5-point scale. The PGI-S was analyzed using the same methods as the CGI-S.

Structure (SMILES): COc1cc2c(cc1OC)[C@H]1C[C@@H](OC(=O)[C@@H](N)C(C)C)[C@H](CC(C)C)CN1CC2 [Valbenazine, (S)-2-amino-3-methyl-butyric acid (2R,3R,11bR)-3-isobutyl-9,10-dimethoxy-1,3,4,6,7,11b-hexahydro-2H-pyrido[2,1-a]isoquinolin-2-yl ester]
- Anosognosia Scale score, changes from baseline (subjects with HD [1]): No clinically meaningful changes were noted from baseline to Week
- Neuro-QoL Upper Extremity Function T Score CFB @ week 12, LS Mean (subjects with HD [2]; valbenazine group): −1.58
- Neuro-QoL Upper Extremity Function T Score CFB @ week 12, LS Mean, Difference (subjects with HD [2]; valbenazine vs placebo): 1.42
- SAE and AE leading to discontinuation of study treatment (subjects with HD [3]; both treatment groups): comparable rates and low incidence
- rates of TEAEs (subjects with HD [3]; both treatment groups): comparable rates of TEAEs in both treatment groups
- tolerability (subjects with HD [3]; once-daily administration): well tolerated
- somnolence (most commonly reported AE), incidence (subjects with HD [3]; valbenazine group): 15.6%
- suicidal behavior or worsening of suicidal ideation (subjects with HD [3]; valbenazine treated subjects): No suicidal behavior or worsening of suicidal ideation was observed
- TMS score LS mean difference, change from screening period baseline to maintenance (subjects with HD [4]): groups: LS mean difference −3.99 (95% CI: −6.27, −1.70); p = 0.0008
- SF-36 subscales and summary scales, differences between treatment groups (subjects with HD [5]): No notable differences were observed at Week 12 between treatment
- SF-36 subscales or summary scales, worsening from baseline (subjects with HD [5]; valbenazine group): No worsening from baseline was observed for the valbenazine group
- PGI-S: proportion of valbenazine-treated subjects who had no chorea symptoms (subjects with HD [6]; Week 12): chorea symptoms increased to about 27% from about 9% at baseline,
- PGI-S: proportion of valbenazine-treated subjects with moderate symptoms (subjects with HD [6]; Week 12): ~29%
- PGI-S: severe or very severe symptoms (subjects with HD [6]; Week 12): No valbenazine-treated subject had severe
- PGI-S: proportion of valbenazine-treated subjects with mild symptoms (subjects with HD [6]; Week 12 (remained consistent from baseline)): 45%), and the proportion with moderate symptoms decreased from

From patent US20260248771A1, “VALBENAZINE, A VMAT2 INHIBITOR, AS A FREE BASE A TOSYLATE OR DITOSYLATE SALT, FOR USE IN THE TREATMENT OF CHOREA ASSOCIATED WITH HUNTINGTON'S DISEASE” (Neurocrine Biosciences, Inc., priority 2022, published 2026)
